Results as given in article PMC11054487, “Species-Specific Unbound Fraction Differences in Highly Bound PFAS: A Comparative Study across Human, Rat, and Mouse Plasma and Albumin” (Toxics, 2024).

Assays:
[1] = test system: human plasma; experiment: Presaturation equilibrium dialysis, fraction unbound in human plasma; format: in vitro ADME; parameters: fraction unbound at 18 h: dose or concentration left out as unconfirmed; conditions: 5 μM PFAS, 18 h, 37 °C, value (CV)
Procedure: (§1) Each PFAS:matrix combination was assessed in quadruplicate.
(§2) The injection volume for each sample was 5 µL.

[2] = test system: rat (Wistar-Han) plasma; experiment: Presaturation equilibrium dialysis, fraction unbound in rat plasma; format: in vitro ADME; parameters: fraction unbound at 18 h: dose or concentration left out as unconfirmed; conditions: 5 μM PFAS, 18 h, 37 °C, value (CV)
Procedure: as §1, §2

[3] = test system: mouse (CD-1) plasma; experiment: Presaturation equilibrium dialysis, fraction unbound in CD-1 mouse plasma; format: in vitro ADME; parameters: fraction unbound at 18 h: dose or concentration left out as unconfirmed; conditions: 5 μM PFAS, 18 h, 37 °C, value (CV)
Procedure: as §1, §2

[4] = test system: mouse (C57BL/6) plasma; experiment: Presaturation equilibrium dialysis, fraction unbound in C57BL/6 mouse plasma; format: in vitro ADME; parameters: fraction unbound at 18 h: dose or concentration left out as unconfirmed; conditions: 5 μM PFAS, 18 h, 37 °C, value (CV)
Procedure: as §1, §2

[5] = molecular target: T1, human serum albumin (HSA) (Homo sapiens, UniProt P02768); experiment: Presaturation equilibrium dialysis, fraction unbound in human serum albumin solution; format: in vitro ADME; conditions: 4% human serum albumin in PBS, value (CV)
T1 construct: purchased Sigma-Aldrich
Procedure: as §1, §2

[6] = molecular target: rat serum albumin (RSA) (Rattus norvegicus, UniProt P02770); experiment: Presaturation equilibrium dialysis, fraction unbound in rat serum albumin solution; conditions: for fraction unbound at 18 h, 5 µM: rat
Procedure: (§3) The equilibrium dialysis device (EQD) HTD96 (Gales Ferry, CT, USA) was assembled according to manufacturer instructions. DPBS buffer solutions were prepared by adding PFAS with a concentration of either approximately five-fold of the estimated fu values based on initial available data or assumed to be 0.001 if no data was available. The dialysis apparatus and membranes assembled were pre-saturated (250 µL) three times in total with PFAS spiked DPBS buffer solution; twice for 1 h followed by a final 18-h pre-saturation. This same solution was used on the receiver side of the EQD. […] This 4% albumin was used in the albumin binding study to recapitulate plasma concentration, as human albumin concentration in plasma is 3.5–4.5 g/dL (530–680 µM). The matrix was diluted five-fold using DPBS for PFAS that had preliminary fu values lower than 0.01. Dimethylsulfoxide (DMSO) stock solutions of test PFAS were prepared at 500 μM and added to species-specific plasma or 4% albumin to a final concentration of 5 μM with 1% DMSO. Next, 150 μL of PFAS spiked DPBS was added to the receiver side of the membrane and 150 μL of compound spiked matrix was added to the donor side. […] Each PFAS:matrix combination was assessed in quadruplicate. For sample collection, 15 μL of buffer and 45 μL of matrix were sampled from the dialysis device into a 96-deep well plate and matrix-matched with either blank buffer or matrix. The samples were then quenched with 200 μL of cold acetonitrile containing internal standard (tolbutamide 30 nM and carbamazepine 12 nM) to precipitate proteins. Next, the plates were sealed and placed on a vortex mixer for 1 min, and then centrifuged (Beckman Coulter, Fullerton, CA, USA) at 3000 rpm for 5 min at room temperature. Lastly, the supernatant was transferred to a new 96-well plate, fully dried down under nitrogen gas, reconstituted with 200 µL of 50/50 (v/v) HPLC grade water/acetonitrile, and vortexed for 1 min prior to LC-MS/MS analysis.
(§4) LC-MS/MS analyses were performed on a SCIEX Triple Quad 5500 mass spectrometer (SCIEX, Concord, ON, Canada) equipped with Turbo Ion Spray interface. […] All instruments were controlled and synchronized by SCIEX Analyst software (version 1.6.3). Mobile phases compositions were 0.1% formic acid in water (mobile phase A) and 0.1% formic acid in acetonitrile (mobile phase B). […] The column was equilibrated at 5% B for 0.5 min before injecting samples. The total run time for each injection was 6 min. The chromatographic separation was conducted on a Phenomenex Kinetex C18 100Å 30 × 2.1 mm column (Torrance, CA, USA) with a flow rate of 0.5 mL/min. The injection volume for each sample was 5 µL. Multiple-reaction-monitoring (MRM) mode using specific precursor/product ion transitions was used for quantification. Data processing was performed using SCIEX Analyst software (version 1.6.3).
(§5) The calculations for fu are shown in Equations (1) and (2), where D is the dilution factor and fu,d is the diluted fu shown below. All calculations are based on area ratios (analyte peak area/IS peak area), and MS responses used for calculations were all in linear ranges. […] (1) Diluted fud=Receiver Area Ratio/Donor Area Ratio (2) Undiluted fu=1/D/1/fu,d−1+1/D
(§6) Albumin concentrations for rodents have been reported in the literature as rat: 3.0 g/dL; CD-1 mice: 2.7 g/dL; C57BL/6 mice: 2.9 g/dL [53].

[7] = molecular target: mouse serum albumin (MSA) (Mus musculus, UniProt P07724); experiment: Presaturation equilibrium dialysis, fraction unbound in mouse serum albumin solution; conditions: for fraction unbound at 18 h, 5 µM: mouse
Procedure: as §3, §4, §5, §6

[8] = test system: rat plasma; parameters: method as in PMID 12499116; conditions: ultrafiltration method; cited from earlier work
[9] = Presaturation equilibrium dialysis, fraction unbound in human plasma; format: in vitro ADME; parameters: fraction unbound at 18 h: dose or concentration left out as unconfirmed; conditions: human, 37 °C, value (CV), read-out: Fraction Unbound (fu) and Coefficient of Variance (CV), Human Plasma
Procedure: as §1, §2

[10] = Presaturation equilibrium dialysis, fraction unbound in rat plasma; format: in vitro ADME; parameters: fraction unbound at 18 h: dose or concentration left out as unconfirmed; conditions: Wistar-Han rat plasma, 37 °C, value (CV), read-out: Fraction Unbound (fu) and Coefficient of Variance (CV), Rat Plasma
Procedure: as §1, §2

[11] = Presaturation equilibrium dialysis, fraction unbound in CD-1 mouse plasma; format: in vitro ADME; parameters: fraction unbound at 18 h: dose or concentration left out as unconfirmed; conditions: 37 °C, value (CV), read-out: Fraction Unbound (fu) and Coefficient of Variance (CV), CD-1 Plasma
Procedure: as §1, §2

[12] = Presaturation equilibrium dialysis, fraction unbound in C57BL/6 mouse plasma; format: in vitro ADME; parameters: fraction unbound at 18 h: dose or concentration left out as unconfirmed; conditions: 37 °C, value (CV), read-out: Fraction Unbound (fu) and Coefficient of Variance (CV), C57BL/6 Plasma
Procedure: as §1, §2

[13] = humans; cited from earlier work
[14] = 3% rat serum albumin, value (%CV)
[15] = 4% rat serum albumin in PBS, 5 μM PFAS, value (CV)
[16] = 3% mouse serum albumin, value (%CV)
[17] = 4% mouse serum albumin in PBS, 5 μM PFAS, value (CV)
[18] = isolated protein, Fraction unbound (fu) and %CV, RSA 3%, 3% rat serum albumin, value (%CV)
[19] = isolated protein, Fraction unbound (fu) and %CV, MSA 3%, 3% mouse serum albumin, value (%CV)
[20] = 4% rat serum albumin (RSA) solution, Fraction Unbound (fu) and Coefficient of Variance (CV), RSA, 4% rat serum albumin in PBS, 5 μM PFAS, value (CV)
[21] = 4% mouse serum albumin (MSA) solution, Fraction Unbound (fu) and Coefficient of Variance (CV), MSA, 4% mouse serum albumin in PBS, 5 μM PFAS, value (CV)

Chain of rat serum albumin (RSA) (P02770 25-608): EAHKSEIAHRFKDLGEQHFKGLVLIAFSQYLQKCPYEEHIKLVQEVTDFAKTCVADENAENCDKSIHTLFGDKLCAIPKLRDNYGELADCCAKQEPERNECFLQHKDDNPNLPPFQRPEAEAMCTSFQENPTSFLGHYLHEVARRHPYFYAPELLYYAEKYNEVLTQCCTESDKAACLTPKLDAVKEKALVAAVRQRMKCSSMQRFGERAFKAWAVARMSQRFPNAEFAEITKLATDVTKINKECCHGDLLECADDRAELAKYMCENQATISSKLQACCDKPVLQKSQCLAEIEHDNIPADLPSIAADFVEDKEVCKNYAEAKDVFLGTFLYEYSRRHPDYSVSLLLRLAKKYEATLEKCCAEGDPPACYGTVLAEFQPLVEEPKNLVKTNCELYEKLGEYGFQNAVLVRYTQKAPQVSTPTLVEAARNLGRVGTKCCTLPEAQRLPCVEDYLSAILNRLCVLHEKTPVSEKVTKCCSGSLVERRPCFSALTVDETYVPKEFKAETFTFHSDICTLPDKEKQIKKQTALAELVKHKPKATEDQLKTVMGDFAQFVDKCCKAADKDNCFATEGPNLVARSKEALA
T1 sequence (P02768 25-609): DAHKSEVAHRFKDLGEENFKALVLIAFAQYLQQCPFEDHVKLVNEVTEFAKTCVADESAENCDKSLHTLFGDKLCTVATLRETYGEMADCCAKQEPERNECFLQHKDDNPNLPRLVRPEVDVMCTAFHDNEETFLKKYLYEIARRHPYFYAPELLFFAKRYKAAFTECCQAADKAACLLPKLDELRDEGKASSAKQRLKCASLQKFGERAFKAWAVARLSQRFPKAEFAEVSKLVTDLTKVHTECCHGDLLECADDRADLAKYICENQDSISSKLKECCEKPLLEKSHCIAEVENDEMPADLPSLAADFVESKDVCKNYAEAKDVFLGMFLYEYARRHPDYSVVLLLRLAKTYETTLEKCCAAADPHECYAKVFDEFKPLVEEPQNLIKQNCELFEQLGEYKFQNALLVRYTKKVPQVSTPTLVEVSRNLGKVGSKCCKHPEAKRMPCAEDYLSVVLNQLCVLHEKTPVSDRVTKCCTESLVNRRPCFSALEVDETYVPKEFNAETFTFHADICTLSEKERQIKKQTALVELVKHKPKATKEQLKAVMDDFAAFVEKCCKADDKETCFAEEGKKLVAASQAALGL
Chain of mouse serum albumin (MSA) (P07724 25-608): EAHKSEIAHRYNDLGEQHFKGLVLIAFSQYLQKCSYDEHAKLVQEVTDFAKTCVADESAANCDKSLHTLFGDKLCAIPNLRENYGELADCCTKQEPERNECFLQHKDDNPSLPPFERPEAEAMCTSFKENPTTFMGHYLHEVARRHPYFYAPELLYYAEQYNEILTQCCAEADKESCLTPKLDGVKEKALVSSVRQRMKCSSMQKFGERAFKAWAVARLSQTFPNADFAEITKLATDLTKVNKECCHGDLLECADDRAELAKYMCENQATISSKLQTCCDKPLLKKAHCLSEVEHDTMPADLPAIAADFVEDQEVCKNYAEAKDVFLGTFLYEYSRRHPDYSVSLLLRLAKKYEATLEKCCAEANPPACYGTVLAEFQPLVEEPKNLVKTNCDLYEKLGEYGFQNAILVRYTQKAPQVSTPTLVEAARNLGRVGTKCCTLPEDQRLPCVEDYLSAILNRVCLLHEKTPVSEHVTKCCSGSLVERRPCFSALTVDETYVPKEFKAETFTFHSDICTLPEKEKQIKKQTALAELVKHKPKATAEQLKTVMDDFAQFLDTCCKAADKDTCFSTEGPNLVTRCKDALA

SMILES | Fraction Unbound (fu) and Coefficient of Variance (CV), Human Plasma [1] | Fraction Unbound (fu) and Coefficient of Variance (CV), Rat Plasma [2] | Fraction Unbound (fu) and Coefficient of Variance (CV), CD-1 Plasma [3] | Fraction Unbound (fu) and Coefficient of Variance (CV), C57BL/6 Plasma [4] | Fraction unbound (fu) and %CV, RSA 3% [6, 14] | Fraction Unbound (fu) and Coefficient of Variance (CV), RSA [6, 15] | Fraction unbound (fu) and %CV, MSA 3% [7, 16] | Fraction Unbound (fu) and Coefficient of Variance (CV), MSA [7, 17] | bound [8] | fraction unbound at 18 h [10] | fraction unbound at 18 h [11] | fraction unbound at 18 h [12] | fraction unbound at 18 h, 5 µM [6, 18] | fraction unbound at 18 h, 5 µM [7, 19] | fraction unbound at 18 h, 5 µM [6, 20] | fraction unbound at 18 h, 5 µM [7, 21] | other results
O=C(O)C(F)(F)C(F)(F)C(F)(F)C(F)(F)C(F)(F)C(F)(F)C(F)(F)C(F)(F)C(F)(F)F [PFDA, perfluorodecanoic acid] | 0.000618(9%) | 0.001(9%) | 0.0015(4%) | 0.00127(9%) | 0.000494 (19%) | 0.000608(19%) | 0.000839 (26%) | 0.00102(26%) | greater than 98% |  |  |  |  |  |  |  | Fraction Unbound (fu) and Coefficient of Variance (CV), HSA ([5]; 5 μM PFAS): 0.000584(8%)
O=C(O)C(F)(F)C(F)(F)C(F)(F)C(F)(F)C(F)(F)C(F)(F)F [PFHpA, perfluoroheptanoic acid] |  |  |  |  |  |  |  |  | greater than 98% | 0.00454 | 0.0331 | 0.0323 | 0.00257 | 0.00954 |  |  | fraction unbound at 18 h ([9]; plasma): 0.00445; fraction unbound at 18 h, 5 µM ([6]; isolated protein, Fraction Unbound (fu) and Coefficient of Variance (CV), RSA, 4% rat serum albumin in PBS, 5 μM PFAS, value (CV)): 0.00313; fraction unbound at 18 h, 5 µM ([7]; isolated protein, Fraction Unbound (fu) and Coefficient of Variance (CV), MSA, 4% mouse serum albumin in PBS, 5 μM PFAS, value (CV)): 0.0118
O=C(O)C(F)(F)C(F)(F)C(F)(F)C(F)(F)C(F)(F)C(F)(F)C(F)(F)C(F)(F)F [PFNA, perfluorononanoic acid] | 0.00187(3%) | 0.0021(6%) | 0.00455(6%) | 0.00438(22%) | 0.00217 (2%) | 0.00271(2%) | 0.00292 (6%) | 0.00364(6%) | greater than 98% |  |  |  |  |  |  |  | 
O=C(O)C(F)(F)C(F)(F)C(F)(F)C(F)(F)C(F)(F)C(F)(F)C(F)(F)F [PFOA, perfluorooctanoic acid] |  |  |  |  |  |  |  |  | greater than 98% |  |  |  | 0.00157 | 0.00411 | 0.00196 | 0.00513 | fraction unbound at 18 h, 5 µM ([9]; 5 μM PFAS): 0.0025; fraction unbound at 18 h, 5 µM ([10]; 5 μM PFAS): 0.00298; fraction unbound at 18 h, 5 µM ([11]; 5 μM PFAS): 0.0152; fraction unbound at 18 h, 5 µM ([12]; 5 μM PFAS): 0.0142; fraction unbound at 18 h, 5 µM ([5]; 4% human serum albumin (HSA) solution, 5 μM PFAS, read-out: Fraction Unbound (fu) and Coefficient of Variance (CV), HSA): 0.00285; t1/2 [13]: 2.3–5.4 years
NS(=O)(=O)C(F)(F)C(F)(F)C(F)(F)C(F)(F)C(F)(F)C(F)(F)C(F)(F)C(F)(F)F [PFOSA, perfluorooctanesulfonamide] |  |  |  |  |  |  |  |  |  | 0.00197 | 0.00326 | 0.0023 | 0.000952 | 0.00102 | 0.00118 | 0.00127 | fraction unbound at 18 h [9]: 0.0019; fraction unbound at 18 h ([5]; 4% human serum albumin (HSA) solution, read-out: Fraction Unbound (fu) and Coefficient of Variance (CV), HSA): 0.00152
